From patent publication US20170226514A1, “PREVENTION OF TUMOUR METASTASIS BY INHIBITION OF NECROPTOSIS” (MAX-PLANCK-GESELLSCHAFT ZUR FÖRDERUNG DER WISSENSCHAFTEN …, priority 2014, published 2017)

What was measured:
RIPK1 = target: T1, RIPK1 (Homo sapiens, UniProt Q13546); settings: cited from earlier work
T1 sequence (Q13546 1-671): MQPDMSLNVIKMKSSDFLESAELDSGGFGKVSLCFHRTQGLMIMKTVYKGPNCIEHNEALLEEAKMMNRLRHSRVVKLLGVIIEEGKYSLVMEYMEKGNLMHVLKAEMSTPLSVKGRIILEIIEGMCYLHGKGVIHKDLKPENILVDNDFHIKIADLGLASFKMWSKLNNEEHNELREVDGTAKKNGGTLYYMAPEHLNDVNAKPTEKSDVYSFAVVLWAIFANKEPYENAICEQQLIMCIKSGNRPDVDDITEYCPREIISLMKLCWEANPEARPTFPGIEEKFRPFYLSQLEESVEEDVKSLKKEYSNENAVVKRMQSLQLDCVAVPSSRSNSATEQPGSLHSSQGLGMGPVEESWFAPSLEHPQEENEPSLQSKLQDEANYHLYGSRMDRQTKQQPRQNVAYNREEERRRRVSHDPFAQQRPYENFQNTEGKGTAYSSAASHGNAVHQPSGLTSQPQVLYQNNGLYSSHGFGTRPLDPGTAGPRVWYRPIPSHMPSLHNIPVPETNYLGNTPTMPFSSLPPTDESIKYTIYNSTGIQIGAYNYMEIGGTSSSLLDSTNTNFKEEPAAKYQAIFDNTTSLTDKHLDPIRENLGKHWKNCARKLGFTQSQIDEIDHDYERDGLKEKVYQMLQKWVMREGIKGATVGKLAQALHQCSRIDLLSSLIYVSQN

necroptosis = settings: where Nec1i can be modified to an active form; cited from earlier work
HUVEC [1] = assay: Cell death assay discriminating apoptotic from necrotic cell death in HUVEC; format: cell-based, human; settings: stimulated overnight; staining with Hoechst 33342 and EtDIII
Procedure: Endothelial cells were grown to reach 80-90% confluency before addition of Ethidium homodimer […]) alone or together with substances or with tumour cells together with substances or inhibitors as indicated in the figures. After 6-18 h, cells were stained with Hoechst33342 and images were acquired. In order to identify the mode of cell death, all images were analyzed with FIJI. The total number of nuclei was determined through a low threshold over all Hoechst positive nuclei. On the same channel a second, separate threshold was used to determine the number of condensed nuclei. A third threshold on the second channel was used in order to determine the number of nuclei that were stained positive for […]. Knockdown in cells was achieved by double-transfection with siRNA using Lipofectamie […] Assays: HUVECs, HMVECs-L or L929 cells (1.5×10^4 at seeding in 100 μl) were cultured for 24 hours in 96-well plates. To induce cell death, cells were stimulated overnight with either rhTRAIL (100 ng/ml, Peprotech), Staurosporine ([…], Jena BioScience), H2O2 (1 mM, AppliChem) or […] (100 ng/ml, Peprotech) or cultured under hypoxic conditions (1% O2, Coy Laboratory Inc). […] Knockdown efficiencies were determined by Western Blotting using antibodies against RIPK3 (Abcam), Caspase-8 (ProSci) and a-tubulin (Sigma) upon lysis with Laemmli buffer or by quantitative PCR (Roche). […] Knockdown efficiencies were determined using quantitative PCR (Roche). Tumor cell number upon knockdown was determined by counting Hoechst33342-positive cells, and tumor cell death was determined by counting condensed and/or EthD-III-positive nuclei (see below). Cell migration was determined by a scratch assay Wang et al., 2007). […]

L929 cells = assay: Cell death assay in L929 cells (TNF-induced necroptosis, Hoechst 33342/EtDIII staining); format: cell-based, mouse; settings: L929 cells treated with TNFα; staining with Hoechst 33342 and EtDIII
Procedure: Cell Death Assays: HUVECs, HMVECs-L or L929 cells (1.5×10^4 at seeding in 100 μl) were cultured for 24 hours in 96-well plates. To induce cell death, cells were stimulated overnight with either rhTRAIL (100 ng/ml, Peprotech), Staurosporine ([…], Jena BioScience), H2O2 (1 mM, AppliChem) or […] (100 ng/ml, Peprotech) or cultured under hypoxic conditions (1% O2, Coy Laboratory Inc). […] Knockdown efficiencies were determined by Western Blotting using antibodies against RIPK3 (Abcam), Caspase-8 (ProSci) and a-tubulin (Sigma) upon lysis with Laemmli buffer or by quantitative PCR (Roche). […] Knockdown efficiencies were determined using quantitative PCR (Roche). Tumor cell number upon knockdown was determined by counting Hoechst33342-positive cells, and tumor cell death was determined by counting condensed and/or EthD-III-positive nuclei (see below). Cell migration was determined by a scratch assay Wang et al., 2007). […] To all images to be analyzed, a Gaussian blur with a radius of 3 pixels was applied to prevent repeatedly counting of fragmented parts of apoptotic nuclei. […] The total number of all endothelial nuclei was determined through a low threshold (TH1) and application of a watershed on the resulting binary image over all Hoechst positive nuclei (minus the nuclei from tumor cells). […]

HUVEC [2] = assay: Tumour cell-induced endothelial cell necroptosis in vitro (co-culture, Hoechst 33342/EtDIII staining); format: cell-based, human; settings: Nec-1 30 μM, co-culture overnight
Procedure: Endothelial cells were grown to reach 80-90% confluency before addition of Ethidium homodimer […]) alone or together with substances or with tumour cells together with substances or inhibitors as indicated in the figures. After 6-18 h, cells were stained with Hoechst33342 and images were acquired. In order to identify the mode of cell death, all images were analyzed with FIJI. The total number of nuclei was determined through a low threshold over all Hoechst positive nuclei. On the same channel a second, separate threshold was used to determine the number of condensed nuclei. A third threshold on the second channel was used in order to determine the number of nuclei that were stained positive for […]. Knockdown in cells was achieved by double-transfection with siRNA using Lipofectamie […] […] Knockdown efficiencies were determined by Western Blotting using antibodies against RIPK3 (Abcam), Caspase-8 (ProSci) and a-tubulin (Sigma) upon lysis with Laemmli buffer or by quantitative PCR (Roche). […] Knockdown efficiencies were determined using quantitative PCR (Roche). Tumor cell number upon knockdown was determined by counting Hoechst33342-positive cells, and tumor cell death was determined by counting condensed and/or EthD-III-positive nuclei (see below). Cell migration was determined by a scratch assay Wang et al., 2007). […]

[3] = system: endothelial cells of the mouse lung; assay: Tumour cell-induced endothelial cell death in vivo (EthD-III-positive endothelial cells in lung, 6 h); settings: B16 tumour cells i.v., Nec-1 1.65 μg/g i.v. per dose
Procedure: (§1) In vivo: Tumour cells and substances or inhibitors were injected i.v. as depicted in the scheme in FIG. 5B into wildtype animals or animals of the respective genotype. To identify EtDIII-positive cells in vivo, animals were injected with EtDIII i.v. 10 min before sacrifice. Organs were isolated and processed for immunohistochemical analysis. For determining the number of metastasis, animals were sacrificed, lungs were isolated and macroscopically analyzed. All reagents used for these studies (incl. DR6-Fc) are commercially available (e.g. Lonza, CellSignaling, Sigma, R&D, etc.). […]
(§2) TUNEL staining kit was from Roche. Sections were analyzed in XYZ views on a Leica SPS confocal microscope. The number of EthD-III-positive endothelial cells was determined by manual counting of EthD-III/ERG- or EthD-III/CD31-positive cells on a minimum of four random tissue sections per organ. For quantification of extravasating tumor cells, cryosections were analyzed by two criteria: tumor cells directly surrounded by CD31 staining (i.e. blood vessel) and with a noninvasive phenotype (i.e. round cell shape) were scored as intravascular, while cells outside blood vessels with an invasive phenotype (i.e. irregular cell shape with protrusions) were scored as extravascular. […]

B16 or LLC1 tumour cells = assay: Metastasis model: lung metastases after i.v. tumour cell injection (12 d); format: in vivo, mouse; settings: Nec-1 1.65 μg/g i.v. per dose, lungs at 12 d
Procedure: as §1, §2

Molecule: O=C1NC(=S)NC1Cc1c[nH]c2ccccc12 (stereo not drawn) [Nec-1 inactive, 5-((1H-indol-3-yl)methyl)-2-thioxoimidazolidin-4-one]
- effectiveness in vitro relative to Nec-1 (times less effective) (RIPK1): approximately 100 times
- inhibition of necroptosis in cellular systems or in vivo (necroptosis): can efficiently inhibit necroptosis

Molecule: CN[C@@H]1C[C@H]2O[C@@](C)([C@@H]1OC)n1c3ccccc3c3c4c(c5c6ccccc6n2c5c31)C(=O)NC4 [Staurosporine]
- type of cell death induced in HUVEC (HUVEC [1]): induced apoptosis

Molecule: OO [H2O2]
- type of cell death induced in HUVEC (HUVEC [1]): necrotic phenotype

Molecule: CN1C(=O)C(Cc2c[nH]c3ccccc23)NC1=S (stereo not drawn) [Nec-1, 5-(1H-indo1-3-ylmethyl)-3-methyl-2-thioxo-4-imidazolidinone]
- TNF-induced necrotic (necroptotic) phenotype of L929 cells, effect of addition of inhibitor (L929 cells): could be blocked
- tumour cell-induced necroptosis of endothelial cells in vitro (number of necroptotic HUVEC) (HUVEC [2]): reduced
- tumour cell-induced endothelial necroptosis in vivo (necroptotic ECs) [3]: reduced
- metastasis formation in vivo (B16 or LLC1 tumour cells): reduced

B1: TRAIL: known stimulus for apoptosis, rhTRAIL from Peprotech (protein, UniProt P50591 1-281, looked up)
Tumor necrosis factor ligand …: MAMMEVQGGPSLGQTCVLIVIFTVLLQSLCVAVTYVYFTNELKQMQDKYSKSGIACFLKEDDSYWDPNDEESMNSPCWQVKWQLRQLVRKMILRTSEETISTVQEKQQNISPLVRERGPQRVAAHITGTRGRSNTLSSPNSKNEKALGRKINSWESSRSGHSFLSNLHLRNGELVIHEKGFYYIYSQTYFRFQEEIKENTKNDKQMVQYIYKYTSYPDPILLMKSARNSCWSKDAEYGLYSIYQGGIFELKENDRIFVSVTNEHLIDMDHEASFFGAFLVG
- type of cell death induced in HUVEC (HUVEC [1]): induced apoptosis
